One assay concerns the target T1, 5-LO (UniProt P09917).
T1 sequence (P09917 1-674): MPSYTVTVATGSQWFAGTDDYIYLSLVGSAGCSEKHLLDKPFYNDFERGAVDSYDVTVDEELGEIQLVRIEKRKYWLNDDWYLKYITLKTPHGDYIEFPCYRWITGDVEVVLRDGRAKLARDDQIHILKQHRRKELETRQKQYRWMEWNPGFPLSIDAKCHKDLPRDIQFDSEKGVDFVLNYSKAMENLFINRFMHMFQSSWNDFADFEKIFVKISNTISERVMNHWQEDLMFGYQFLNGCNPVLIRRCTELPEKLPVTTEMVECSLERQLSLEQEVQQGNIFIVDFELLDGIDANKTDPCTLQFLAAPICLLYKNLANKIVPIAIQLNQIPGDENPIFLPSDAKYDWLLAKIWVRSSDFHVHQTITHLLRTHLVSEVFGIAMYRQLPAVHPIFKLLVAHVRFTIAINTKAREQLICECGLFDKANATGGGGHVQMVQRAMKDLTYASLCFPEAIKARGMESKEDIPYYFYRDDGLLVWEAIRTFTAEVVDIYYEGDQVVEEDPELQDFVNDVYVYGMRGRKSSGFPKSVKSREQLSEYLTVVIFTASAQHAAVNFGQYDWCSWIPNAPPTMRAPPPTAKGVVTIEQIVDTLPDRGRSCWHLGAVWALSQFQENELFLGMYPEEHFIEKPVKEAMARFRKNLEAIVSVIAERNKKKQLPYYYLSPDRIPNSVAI
Kind of assay: 5-LO enzyme assay (RIA quantitation of 5-HETE). It is filed as biochemical. The conditions noted are these: Procedure A (RBL-1 cells) or B (HL-60 cells), not given; read-out: Inhibition of 5-LO: IC50. How it is done: 5-LO enzyme assays (radio-immuno assays (RIA)) were performed according to literature procedures (ref: (a) Egan, R. W., and Gale, P. H., J. Biol. Chem. 1985, 260:11554-11559; (b) Shimizu, T., Rdamark, O., and Samuelsson, B. Proc. Natl. Acad. Sci. USA, 1984, 81:689-693); (c) Coffey, M. et al., J. Biol. Chem. 1992, 267: 570-576) using commercially available kits or reagents.
Tissue/cell sources: Rat basophilic leukemia cells (RBL-1);
Substrate: Arachidonic acid (AA) at 14 μM;
Reaction: AA→5-HPETE→5-HETE, incubation at 25° C. for 8 min;
Method: RIA quantitation of 5-HETE, reference compound NGDA (nordihydroquaiaretic acid).
Tissue/cell sources: Human differentiated HL-60 cells;
Substrate: Arachidonic acid (AA) at 0.4 μM;
Reaction: AA→5-HPETE→5-HETE, incubation at 37° C. for 10 min;
The results are expressed as percent of control activity and as a percent inhibition of control activity obtained in the presence of the tested compounds.
IC50 values (concentration causing a half-maximal inhibition of control activity) and Hill coefficients (nH) are determined by non-linear regression analysis of the concentration-response curves. These parameters are obtained by Hill equation curve fitting.

For assay [1], the target named is T2, Histamine H1-receptor (peripheral) (Cavia porcellus, UniProt P31389).
T2 construct: Aliquots of guinea-pig lung membrane preparations corresponding to 800 μg protein are incubated; from tissue; host or cells: guinea-pig lung membranes
T2 sequence (P31389 whole entry): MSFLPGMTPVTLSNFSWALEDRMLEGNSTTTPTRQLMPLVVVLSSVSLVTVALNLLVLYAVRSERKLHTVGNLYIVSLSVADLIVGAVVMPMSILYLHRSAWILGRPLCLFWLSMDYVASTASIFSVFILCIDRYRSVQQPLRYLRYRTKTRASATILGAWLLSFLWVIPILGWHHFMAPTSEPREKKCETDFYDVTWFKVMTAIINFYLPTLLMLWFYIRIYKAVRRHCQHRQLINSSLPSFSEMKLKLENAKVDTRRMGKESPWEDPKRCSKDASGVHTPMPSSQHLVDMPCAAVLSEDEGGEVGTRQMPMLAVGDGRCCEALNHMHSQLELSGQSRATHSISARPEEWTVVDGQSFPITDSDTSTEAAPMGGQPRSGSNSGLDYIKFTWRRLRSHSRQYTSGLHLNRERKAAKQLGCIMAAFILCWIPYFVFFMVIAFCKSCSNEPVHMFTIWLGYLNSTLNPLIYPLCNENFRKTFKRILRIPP
Kind of assay: Histamine H1-receptor (peripheral) binding assay, [3H]pyrilamine, guinea-pig lung membranes. Conditions: 1 nM [3H]pyrilamine. How it is done: Histamine H1-receptor (peripheral) binding assays were performed according to the literature procedure (ref: Dini, S., et al, Agents and Actions, 1991, 33:181-184). Aliquots of guinea-pig lung membrane preparations corresponding to 800 μg protein are incubated for 15 min at 22° C. in 500 μl of 50 mM Na2HPO4/KH2PO4 buffer (pH 7.5) containing 1 nM [^3H]pyrilamine and increasing concentrations of the competing drugs. Nonspecific binding is determined in the presence of 100 μM triprolidine. After incubation, the samples are filtered rapidly under vacuum through glass fiber filters (GF/B, Whatman) and rinsed several times with ice-cold 50 mM Na2HPO4/KH2PO4 using a cell harvester (Brandel). Bound radioactivity is measured with a scintillation counter (LS 6000, Beckman) using a liquid scintillation cocktail (Formula 989, Packard).The reference compound for this assay is pyrilamine.
The results are expressed as percent of control specific binding and as a percent inhibition of control specific binding obtained in the presence of the tested compounds. IC50 values (concentration causing a half-maximal inhibition of control activity) and Hill coefficients (nH) are determined by non-linear regression analysis of the concentration-response curves. These parameters are obtained by Hill equation curve fitting.

Assay [2] concerns human differentiated HL-60 cells. Kind of assay: LTB4 secretion assay in differentiated HL-60 cells (A23187, EIA). Type of assay: cell-based. Conditions: 0.5 h, A23187 5 uM, 37 C, 30 min, read-out: Inhibition of LTB4 secretion: IC50. How it is done: The assays were performed using human differentiated HL-60 cells using NDGA as reference compound following the literature procedure (Bennett, C. F. et al, Biochem. J., 1993, 289: 33-39). Substrate A23187 (5 uM) was incubated along with test compound in HL-60 cells at 37 C for 30 min. Reaction product LTB4 was detected by enzymeimmuno assays (EIA) using commercially available kits and a microplate reader.

Molecules are shown by their SMILES. Some results are limits rather than exact numbers.

As a reminder, the IC50 is the concentration at which inhibition is half-maximal. With `O=c1c2ccccc2nc(CN2CCC(Nc3nc4ccccc4n3Cc3ccc(F)cc3)CC2)n1O` [Entry 1], the concentration for half-maximal inhibition (IC50) (at 5-LO; in assay [1]) was less than 1 µM in each case.

As for `O=C(O)c1ccc2c(=O)n(O)c(CN3CCC(Nc4nc5ccccc5n4Cc4ccc(F)cc4)CC3)nc2c1` [Entry 2], the 50% inhibitory concentration (IC50) on 5-LO was greater than 10 µM; in assay [1], less than 1 µM.

For the molecule `O=C(O)c1ccc2c(=O)n(O)c(CN3CCC(=C4c5ccc(Cl)cc5CCc5cccnc54)CC3)nc2c1` [Entry 3], the concentration for half-maximal inhibition (IC50) is less than 10 µM on 5-LO and less than 1 µM in assay [1].

With `Cc1cccc2c(=O)n(O)c(CN3CCC(=C4c5ccc(Cl)cc5CCc5cccnc54)CC3)nc12` [Entry 4], the IC50 (on 5-LO; in assay [1]) was less than 10 µM throughout.

Take `O=c1c2cc(F)ccc2nc(CN2CCC(=C3c4ccc(Cl)cc4CCc4cccnc43)CC2)n1O` [Entry 5]: the IC50 (on 5-LO; in assay [1]) was less than 10 µM in each case.

`O=c1c2cc(F)c(F)cc2nc(CN2CCC(Nc3nc4ccccc4n3Cc3ccc(F)cc3)CC2)n1O` [Entry 6]: the IC50 at 5-LO is less than 10 µM; in assay [1], less than 1 µM.

As for `COc1ccc2nc(CN3CCC(Nc4nc5ccccc5n4Cc4ccc(F)cc4)CC3)n(O)c(=O)c2c1` [Entry 7], the IC50 at 5-LO was less than 10 µM; in assay [1], less than 1 µM.

Regarding `O=c1c2cc(O)ccc2nc(CN2CCC(Nc3nc4ccccc4n3Cc3ccc(F)cc3)CC2)n1O` [Entry 8], the 50% inhibitory concentration (IC50) is less than 10 µM at 5-LO and less than 0.1 µM in assay [1].

Take `O=C(O)c1ccc2nc(CN3CCC(Nc4nc5ccccc5n4Cc4ccc(F)cc4)CC3)n(O)c(=O)c2c1` [Entry 9]: the IC50 at 5-LO is greater than 10 µM; in assay [1], less than 0.1 µM.

Take `O=C(O)c1ccc2nc(N3CCC(Nc4nc5ccccc5n4Cc4ccc(F)cc4)CC3)n(O)c(=O)c2c1` [Entry 10]: the half-maximal inhibitory concentration (IC50) at 5-LO was greater than 10 µM; in assay [1], less than 1 µM.

In the case of `O=C(O)c1ccc2nc(NC3CCN(c4nc5ccccc5n4Cc4ccc(F)cc4)CC3)n(O)c(=O)c2c1` [Entry 11], the results for the IC50 (at 5-LO; in assay [1]) were greater than 10 µM and less than 10 µM, respectively.

For `O=c1c2ccccc2nc(N2CCC(Nc3nc4ccccc4n3Cc3ccc(F)cc3)CC2)n1O` [Entry 12], the IC50 was less than 10 µM on 5-LO, less than 1 µM in assay [1] and less than 10 µM in assay [2].

For the molecule `O=c1c2ccccc2nc(N2CCN(C(c3ccccc3)c3ccc(Cl)cc3)CC2)n1O` (centres unmarked) [Entry 13], the 50% inhibitory concentration (IC50) in assay [1] and in assay [2] was less than 10 µM in each case.

On to `O=c1c2cc(Br)ccc2nc(N2CCC(Nc3nc4ccccc4n3Cc3ccc(F)cc3)CC2)n1O` [Entry 14], for which the IC50 at 5-LO was less than 10 µM; in assay [1], less than 1 µM; in assay [2], less than 10 µM.

Take `O=c1c2cc(F)ccc2nc(N2CCC(Nc3nc4ccccc4n3Cc3ccc(F)cc3)CC2)n1O` [Entry 15]: the values for the half-maximal inhibitory concentration (IC50) (on 5-LO; in assay [1]; in assay [2]) were less than 1 µM, less than 0.1 µM and less than 10 µM, respectively.

For the molecule `COc1ccc2nc(N3CCC(Nc4nc5ccccc5n4Cc4ccc(F)cc4)CC3)n(O)c(=O)c2c1` [Entry 16], the values for the IC50 (at 5-LO; in assay [1]; in assay [2]) were less than 10 µM, less than 1 µM and less than 10 µM, respectively.

With `O=c1c2ccc(F)cc2nc(N2CCC(Nc3nc4ccccc4n3Cc3ccc(F)cc3)CC2)n1O` [Entry 17], the IC50 in assay [1] was less than 1 µM; in assay [2], less than 10 µM.

Consider `O=c1c2ccc(Cl)cc2nc(N2CCC(Nc3nc4ccccc4n3Cc3ccc(F)cc3)CC2)n1O` [Entry 18], for which the half-maximal inhibitory concentration (IC50) is less than 1 µM in assay [1] and less than 10 µM in assay [2].

For the molecule `O=c1c2cc(Cl)ccc2nc(N2CCC(Nc3nc4ccccc4n3Cc3ccc(F)cc3)CC2)n1O` [Entry 19], the half-maximal inhibitory concentration (IC50) on 5-LO was less than 1 µM; in assay [1] it was less than 1 µM; in assay [2], less than 10 µM.

As to `COc1cccc2c(=O)n(O)c(N3CCC(Nc4nc5ccccc5n4Cc4ccc(F)cc4)CC3)nc12` [Entry 20], the values for the concentration for half-maximal inhibition (IC50) in assay [1] and in assay [2] were less than 1 µM and greater than 10 µM, respectively.

For `COc1cc2nc(N3CCC(Nc4nc5ccccc5n4Cc4ccc(F)cc4)CC3)n(O)c(=O)c2cc1OC` [Entry 21], the IC50 in assay [1] was less than 1 µM; in assay [2] it was less than 10 µM.

Regarding `O=c1c2c(Cl)cccc2nc(N2CCC(Nc3nc4ccccc4n3Cc3ccc(F)cc3)CC2)n1O` [Entry 22], the IC50 in assay [1] and in assay [2] was less than 1 µM in each case.

Take `Cc1cccc2nc(N3CCC(Nc4nc5ccccc5n4Cc4ccc(F)cc4)CC3)n(O)c(=O)c12` [Entry 23]: the results for the IC50 in assay [1] and in assay [2] were less than 1 µM and less than 10 µM, respectively.

`O=c1c2cc([N+](=O)[O-])ccc2nc(N2CCC(Nc3nc4ccccc4n3Cc3ccc(F)cc3)CC2)n1O` [Entry 24]: the figures for the IC50 in assay [1] and in assay [2] were less than 1 µM and greater than 10 µM, respectively.

These data come from patent publication US20020082268A1, “Therapeutic compounds for the treatment of asthma and allergy, and methods of use thereof” (priority 2000, published 2002).
